This is an account of results in PMC7394103 (Frontiers in Pharmacology, 2020).

The target of one series is T1, AChE (Homo sapiens, UniProt P22303).
T1 construct: purchased Sigma-Aldrich
As to the kind of experiment: AChE inhibition assay (Ellman-based kit). It is filed as biochemical. The following applies: concentration causing 30% inhibition. Here is the method:
The inhibitory effect of test compounds on AChE activity was performed using an AChE inhibitor screening kit from Sigma-Aldrich. The kit is based on an improved Ellman method, whereby thiocholine produced from AChE activity forms a yellow color with 5,5’-dithiobis(2-nitrobenzoic acid), and the intensity the color (412 nm) is proportional to enzyme activity. […] IC30 was obtained by graphing the % inhibition of enzyme activity versus the logarithm of concentration of test compound using 5–7 tested concentrations.
On the technique in general: Ellman's reagent forms a yellow product with free thiols.

For a further series, the system named is IL-6 secretion by HUVEC. As to the kind of experiment: IL-1β-induced IL-6 secretion by HUVEC (ELISA). The following applies: Homo sapiens, 30 min compound, then 5 ng/ml IL-1β, 24 h. Type of series: cell-based. The procedure:
(§1) FLS, HUVEC, SW982, and THP-1 cells were plated in 96 well plates (10^4 to 10^5 cells/well) for 48 h before treatment. At 2 days post-confluency, the cells were serum-starved and washed twice (with the exception of THP-1 cell, which were not washed) with FBS-free medium prior to the addition of test compounds. The cells were incubated in the presence or absence of test compounds or DMSO (vehicle control) for 30 min at 37°C in a 5% CO2 atmosphere, IL-1β (5 ng/ml) was added, and the cells were incubated for an additional 24 h. Culture supernatants were collected and stored at –80°C. The levels of MMP-1 and MMP-3 were determined in culture supernatants using commercially available ELISA kits according to the manufacturer’s instructions (R&D System, Minneapolis, MN, USA). IL-6 levels were also determined in the supernatants using a human IL-6 ELISA kit (BD Biosciences, San Jose, CA, USA).
In general terms: ELISA stands for enzyme-linked immunosorbent assay.

A further series deals with IL-6 secretion by FLS. As to the kind of experiment: IL-1β-induced IL-6 secretion by FLS (ELISA). Type of series: cell-based. The following applies: Homo sapiens; 30 min compound, then 5 ng/ml IL-1β, 24 h. An excerpt:
(§2) This study was approved by the Institutional Review Board of University of California, San Diego School of Medicine (La Jolla, CA, USA). Informed consent was obtained from all participants. Anonymous synovial tissue samples were obtained from six patients with RA at the time of total joint replacement (5 females, 1 male; age range, 44–72 years), as previously described ([Alvaro-Gracia et al., 1990]). The diagnosis of RA conformed to American College of Rheumatology 1987 revised criteria ([Arnett et al., 1988]). The synovium was minced and incubated with collagenase type VIII (0.5 mg/ml) (Sigma-Aldrich) in serum-free RPMI-1640 (Life Technologies, Grand Island, NY, USA) for 2 h at 37°C, filtered, extensively washed, and cultured in DMEM (Life Technologies) supplemented with 10% FBS (Gemini Bio Products, Calabasas, CA, USA), penicillin, streptomycin, gentamicin, and glutamine in a humidified 5% CO2 atmosphere. […]
(§3) FLS, HUVEC, SW982, and THP-1 cells were plated in 96 well plates (10^4 to 10^5 cells/well) for 48 h before treatment. […] The levels of MMP-1 and MMP-3 were determined in culture supernatants using commercially available ELISA kits according to the manufacturer’s instructions (R&D System, Minneapolis, MN, USA). IL-6 levels were also determined in the supernatants using a human IL-6 ELISA kit (BD Biosciences, San Jose, CA, USA).

For series [1], the system named is MMP-3 secretion by SW982 cells. As to the kind of experiment: IL-1β-induced MMP-3 secretion by SW982 cells (ELISA). Type of series: cell-based. To be noted: Homo sapiens, 30 min compound, then 5 ng/ml IL-1β, 24 h. The procedure: as §1
The subject of the next series is MMP-3 secretion by HUVEC. As to the kind of experiment: IL-1β-induced MMP-3 secretion by HUVEC (ELISA). Type of series: cell-based. The following applies: Homo sapiens, 30 min compound, then 5 ng/ml IL-1β, 24 h. The procedure:
as §1

The test system of another series is MMP-3 secretion by FLS. As to the kind of experiment: IL-1β-induced MMP-3 secretion by FLS (ELISA). Type of series: cell-based. The following applies: Homo sapiens; 30 min compound, then 5 ng/ml IL-1β, 24 h.
Text: as §2, §3

Series [2] is described as follows: Cytotoxicity assay (CellTiter-Glo), SW982. Type of series: cell-based. To be noted: human, SW982 cells; concentrations up to 50 µM; read-out: Cytotoxic effect SW982 IC50. Here is the method: Cytotoxicity was analyzed using a CellTiter-Glo Luminescent Cell Viability Assay Kit (Promega), according to the manufacturer’s protocol. Briefly, cells were cultured at a density of 10^4 to 10^5 cells/well with different concentrations of test compounds (final concentration of DMSO was 1%) for the indicated periods of time (2, 12, or 24 h) at 37°C and 5% CO2. Following treatment, substrate was added to the cells, and the samples were analyzed with a Fluoroscan Ascent FL microplate reader.
On the technique in general: In ATP-based viability assays light output follows the ATP content of the culture.

A short description of series [3]: Cytotoxicity assay (CellTiter-Glo), FLS. Type of series: cell-based, human. To be noted: both sexes, human; concentrations up to 50 µM; read-out: Cytotoxic effect FLS IC50. The text has this:
(§4) This study was approved by the Institutional Review Board of University of California, San Diego School of Medicine (La Jolla, CA, USA). Informed consent was obtained from all participants. Anonymous synovial tissue samples were obtained from six patients with RA at the time of total joint replacement (5 females, 1 male; age range, 44–72 years), as previously described ([Alvaro-Gracia et al., 1990]). The diagnosis of RA conformed to American College of Rheumatology 1987 revised criteria ([Arnett et al., 1988]). The synovium was minced and incubated with collagenase type VIII (0.5 mg/ml) (Sigma-Aldrich) in serum-free RPMI-1640 (Life Technologies, Grand Island, NY, USA) for 2 h at 37°C, filtered, extensively washed, and cultured in DMEM (Life Technologies) supplemented with 10% FBS (Gemini Bio Products, Calabasas, CA, USA), penicillin, streptomycin, gentamicin, and glutamine in a humidified 5% CO2 atmosphere. Cells were allowed to adhere overnight, nonadherent cells were removed, and adherent fibroblast-like synoviocytes (FLS) were split at 1:3 when 70%–80% confluent. FLS were used from passages 3 through 9, during which time they are a homogeneous population of cells (<1% CD11b positive, <1% phagocytic, and <1% FcγRII and FcγRIII receptor positive).
(§5) Cytotoxicity was analyzed using a CellTiter-Glo Luminescent Cell Viability Assay Kit (Promega), according to the manufacturer’s protocol. […] Following treatment, substrate was added to the cells, and the samples were analyzed with a Fluoroscan Ascent FL microplate reader.

Another series relates to FLS. As to the kind of experiment: Cytotoxicity assay (CellTiter-Glo), FLS. The following applies: during the 90-min period of the c-Jun assay. It is filed as cell-based, human.
Text: as §4, §5

The test system of series [4] is c-Jun phosphorylation in FLS. As to the kind of experiment: c-Jun phosphorylation in IL-1β-stimulated FLS (Western blot). Type of series: cell-based, human. The following applies: 1 h pretreatment, 2 ng/ml IL-1β 15 min. The procedure: Cultured FLS (passage 4) were plated at 2 × 10^5 cells in six-well plates overnight in DMEM containing 10% FBS and synchronized for 24 h in DMEM/0.1% FBS. […] The cells were then washed once with ice-cold PBS and lysed with modified radioimmunoprecipitation assay buffer [50 mM HEPES, pH 7.4, 150 mM NaCl, 1% Triton X-100, 10% glycerol, 2.5 mM MgCl2, 1.0 mM EDTA, 20 mM β-glycerophosphate, 10 mM NaF, 1 mM Na3VO4, and Protease inhibitor cocktail (Roche, Indianapolis, IN)]. Protein concentration of the lysates was measured using a MicroBCA Assay kit (Pierce, Rockford, IL), and 40 μg lysate was subjected to 10% SDS-PAGE and Western blot analysis. Anti–phospho-c-Jun (Ser63) was purchased from Cell Signaling Technology (Danvers, MA), and anti-mouse GAPDH was from Santa Cruz Biotechnology (Santa Cruz, CA).

The target of another series is JNK1. On the set-up: method as in Schepetkin et al., 2019. The following applies: previously reported binding affinity; ref Schepetkin et al., 2019; cited from earlier work.
The target in another series is JNK3. Also on record: method as in Schepetkin et al., 2019. To be noted: previously reported binding affinity; ref Schepetkin et al., 2019; cited from earlier work.

T1 sequence (P22303 32-614): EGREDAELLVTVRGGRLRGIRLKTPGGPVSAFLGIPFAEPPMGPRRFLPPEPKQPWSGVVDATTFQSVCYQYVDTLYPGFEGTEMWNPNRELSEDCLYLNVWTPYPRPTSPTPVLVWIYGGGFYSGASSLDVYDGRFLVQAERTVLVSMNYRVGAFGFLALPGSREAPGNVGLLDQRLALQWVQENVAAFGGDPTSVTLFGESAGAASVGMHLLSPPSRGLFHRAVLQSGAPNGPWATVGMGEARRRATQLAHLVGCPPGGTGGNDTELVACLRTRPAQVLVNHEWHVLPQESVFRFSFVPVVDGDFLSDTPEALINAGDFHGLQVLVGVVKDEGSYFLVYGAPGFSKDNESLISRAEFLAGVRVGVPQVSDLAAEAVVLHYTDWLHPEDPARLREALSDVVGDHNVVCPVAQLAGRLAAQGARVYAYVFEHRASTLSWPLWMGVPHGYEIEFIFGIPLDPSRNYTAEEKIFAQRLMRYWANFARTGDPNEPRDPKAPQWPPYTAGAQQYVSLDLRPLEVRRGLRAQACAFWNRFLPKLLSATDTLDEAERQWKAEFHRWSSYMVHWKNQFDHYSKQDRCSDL

What is called IC50 is the concentration that inhibits the measured activity by half. By Kd is commonly meant the equilibrium constant for the complex coming apart. `O=C1c2ccccc2-n2c1nc1ccccc1c2=O` [TRYP, indolo[2,1-b]quinazolin-6,12-dione]: the “AChE inhibition IC30” value at AChE was found to be 4.2 ± 1.2 µM. The IC50 in the series on IL-6 secretion by HUVEC was 6.4 ± 2.7 µM; in the series with IL-6 secretion by FLS it was 14.8 ± 1.8 µM; in series [1], 8.7 ± 0.3 µM; in the series on MMP-3 secretion by HUVEC, 12.8 ± 4.4 µM; in the series on MMP-3 secretion by FLS it was 12.7 ± 4.6 µM; in [2], 19.1 ± 4.9 µM. Also, in series [3], the IC50 was found to be 16.7 ± 1.6 µM. In the series on FLS, the FLS viability entry is “neither TRYP nor TRYP-Ox affected FLS viability”. Also, the c-Jun phosphorylation entry in series [4] was “had no effect”. Also, the Kd on JNK1 is 23 µM. On JNK3, the “JNK3 Kd” value was “No binding”.

For the compound `O=c1c2ccccc2nc2n1-c1ccccc1/C2=N/O` [TRYP-Ox, tryptanthrin-6-oxime], on AChE, the “AChE inhibition IC30” value is 12.0 ± 3.9 µM. In addition, the concentration for half-maximal inhibition (IC50) is 0.9 ± 0.3 µM in the series on IL-6 secretion by HUVEC; 7.4 ± 1.2 µM in the series with IL-6 secretion by FLS; 1.4 ± 0.1 µM in series [1]; 15.9 ± 5.8 µM in the series on MMP-3 secretion by HUVEC; 3.8 ± 0.4 µM in the series with MMP-3 secretion by FLS; over 50 µM in [2]. For the same compound, in [3], the IC50 was over 50 µM. In the series on FLS, the FLS viability result is on record as “neither TRYP nor TRYP-Ox affected FLS viability”. Also, the c-Jun phosphorylation result in [4] is listed as “inhibited c-Jun phosphorylation”.
